Consider one substance from PMC3024946, “Hydroxyproline-containing collagen analogs trigger the release and activation of collagen-sequestered proMMP-2 by competition with prodomain-derived peptide P33-42” (Fibrogenesis & Tissue Repair, 2011).

One assay deals with T1, actMMP-2 / CI (Homo sapiens, UniProt P08253).
T1 construct: purchased Invitek
T1 sequence (P08253 110-660): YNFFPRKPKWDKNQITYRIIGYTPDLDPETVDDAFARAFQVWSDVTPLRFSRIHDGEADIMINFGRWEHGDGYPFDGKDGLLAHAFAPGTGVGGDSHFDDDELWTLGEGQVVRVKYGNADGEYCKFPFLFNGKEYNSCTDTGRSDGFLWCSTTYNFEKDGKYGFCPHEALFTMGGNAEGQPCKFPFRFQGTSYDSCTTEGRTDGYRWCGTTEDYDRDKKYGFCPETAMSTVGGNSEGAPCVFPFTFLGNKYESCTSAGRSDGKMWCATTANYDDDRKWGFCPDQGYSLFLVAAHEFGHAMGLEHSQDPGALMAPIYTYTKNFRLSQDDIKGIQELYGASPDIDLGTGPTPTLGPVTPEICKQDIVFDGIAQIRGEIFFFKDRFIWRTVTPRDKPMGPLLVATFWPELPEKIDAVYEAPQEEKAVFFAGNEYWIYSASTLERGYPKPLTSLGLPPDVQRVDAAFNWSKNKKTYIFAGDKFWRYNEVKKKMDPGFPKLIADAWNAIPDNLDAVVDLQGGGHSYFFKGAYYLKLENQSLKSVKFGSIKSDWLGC
Nature of the assay: SPR, competition of actMMP-2 binding to CI, nonactivating buffer. The procedure:
Sensor chip preparations and SPR measurements were performed using a BiacoreX device and the Bia-evaluation software (version 3.2; Biacore, Uppsala, Sweden). The pepsin-resistant triple-helical part of human fibrillar CI (100 μg/ml) in 10 mM acetate coupling buffer, pH 4.8, was immobilized to a dextran matrix-sensor chip at a flow rate of 5 μl/min, resulting in 5,500 resonance units from CI covalently linked via its primary amino groups. The control flow cell was prepared using the coupling buffer without CI. Surfaces were activated and blocked as described previously. […] The effects of (GPO)10, GAP, (POG)5, (GPP)10 and P33-42 on MMP-2 and MMP-9 binding to CI and their enzymatic activity were determined by adding the binding competitors to the (pro- and act)MMP-2 and MMP-9 solution in 10- to 150-fold molar excesses. Effects independent of MMP-2 and MMP-9 activity were monitored in the presence of Ro 28-2653 (1 μM) during SPR analysis. […] Kinetic parameters were analyzed using the 1:1 binding model with drifting baseline and subtraction of the control flow cell binding from sensorgrams obtained with immobilized CI. Binding constants (Kd) were calculated from the association (ka) and dissociation rates (kd) obtained from individual binding curves at different concentrations. […]
For orientation: In SPR one partner is held on a chip, and binding of the other changes the refractive index at the surface.

For the next assay, the system named is ProMMP-2. The assay is described as follows: Fluorogenic short-substrate assay, activation of proMMP-2. The conditions noted are these: 10-fold excess; 50 ng proMMP-2; 800 nM MCA-Pro-Leu-Gly-Leu-Dnp-Dap-Ala-Arg-NH2; 37°C; on BSA or CI. In kind it is biochemical, human. The procedure:
Enzymatic activities of MMPs were studied spectrofluorimetrically by cleavage of fluorogenic substrates in MMP activity buffer within 2 to 5 h. For gelatinases 800 nM MCA-Pro-Leu-Gly-Leu-Dnp-Dap-Ala-Arg-NH2 (λex/em 328/393 nm; Bachem, Bubendorf, Switzerland) or 10 μg/ml DQ-gelatine were used, according to the method described by Knight et al. for collagenases 800 nM MCA-Pro-Cha-Gly-Nva-His-Ala-Dpa-NH2 (λex/em 280/360 nm; Anaspec, San José, CA, USA). In some experiments, proMMP-2 was fully activated in the presence of 1 mM APMA prior to the kinetic measurements. A quantity of 50 ng pro- or actMMP-2 alone or mixed with 10- to 150-fold molar excesses of (GPO)10, GAP, P33-42 or mixtures of (GPO)10 and P33-42, were added to CI-coated, BSA-coated (1 μg/well both) or uncoated wells containing 150 μl of the respective substrate solution. The peptide P33-42 was purchased from the Institute of Biochemistry (Humboldt-University, Berlin, Germany). The influence of CI on MMP-2 enzymatic activity against the quenched fluorescent substrate could be excluded. Background subtraction (measurement without MMPs) was applied to all curves. All experiments were performed with a fluorescence microplate reader (Molecular Devices, Sunnyvale, CA, USA) and black 96-well microtiter plates with a clear bottom (Greiner bio-one, Frickenhausen, Germany).

“H-Gly-Cys-Hyp-(Gly-Pro-Hyp)10-Gly-Cys-Hyp-Gly-NH2 [(GPO)10, triple-helical Hyp-containing collagen analog]” showed an Off rate at actMMP-2 / CI (actMMP-2 (100 nM) binding to CI with 10× (GPO)10, PBS, 0.05% Tween 20) of 0.56 s⁻¹. The “effect on binding to CI” value at actMMP-2 / CI (actMMP-2, 10-fold molar excess) is listed as “only slightly impaired”. In addition, the “activation of proMMP-2” value in the assay on ProMMP-2 is “resulted in the same plateau activity as actMMP-2 without (GPO)10”.
